From paper PMC7447632, “Highly functionalized β-lactams and 2-ketopiperazines as TRPM8 antagonists with antiallodynic activity” (Scientific Reports, 2020)
Counter-ions that a name gives are not always drawn.

Assays:
Type in all cases: cell-based
[1] = target: T1, hTRPV1 channels (Homo sapiens, UniProt Q8NER1); test: Ca2+ microfluorometry in HEK cells expressing hTRPV1 (capsaicin); settings: 1 µM capsaicin; for TRPV1 Blockade (%) 5 µM: 5 µM compound; for TRPV1 Blockade (%) 50 µM: 50 µM compound
T1 construct: expressed in transfected cells; host or cells: HEK (stably transfected)
Procedure: β-Lactam and 2-ketopiperazine derivatives were also assayed for their activity in cell expressing hTRPV1 channels. No significant antagonist activity was measured for any derivatives within both chemotypes (Supplementary Tables S1, S2, and Fig. S3), indicating their selectivity for TRPM8 channels.
(§1) Human embryonic kidney cell line (HEK) stably transfected with rTRPM8 or h-TRPV1 were used as previously described. Briefly, cells were seeded in 96-well plates at a cell density of 30,000 cells 2 days before treatment. Buffer used was HBBS (in mM): 138 NaCl, 5.33 KCl, 1.26 CaCl2, 0.5 MgCl-6H2O, 0.4 MgSO4-7H2O, 4 NaHCO3 0.44 KH2PO4, 0.3 Na2HPO4, pH 7.4. The day of treatment the medium was replaced with 100 µL of the dye loading solution Fluo-4 NW supplemented with probenecid 2.5 mM. After incubation, plates were transferred to a fluorescence plate reader (Polastar BMG). In the experimental protocol, the baseline fluorescence was recorded ([…]) for 3 cycles. After, vehicle, compound at different concentrations and the corresponding antagonist, 10 µM AMTB for TRPM8 or 10 µM Ruthenium Red for TRPV1 were added to the well. Fluorescence intensity was recorded during 7 cycles more. Finally, the agonist 100 µM menthol for TRPM8 or 1 µM capsaicin for TRPV1 was added and fluorescence intensity was recorded during 10 cycles more.
Table S1. Activity at hTRPV1 of β–lactams derived from phenylalaninol conjugates
Compd. Isomer Isomer TRPV1 Blockade (%)
Table S2. Activity at hTRPV1 of 2-ketopiperazines derived from phenylalaninol

[2] = target: T2, rat TRPM8 channel (Rattus norvegicus, UniProt Q8R455); test: Ca2+ microfluorometry, menthol-induced Ca2+ influx in HEK293 cells expressing rat TRPM8; settings: 100 µM menthol, HEK-rTRPM8; for % Blockade 5 µM: 5 µM compound; for % Blockade 50 µM: 50 µM compound; for IC50: Ca2+ microfluorometry
T2 construct: expressed in transfected cells; host or cells: HEK293 (stably transfected)
Procedure: The ability to inhibit menthol-induced Ca^2+ intracellular influx into the cytosol on HEK293 cells heterologously expressing the rat TRPM8 channel was measured and compared to that of AMTB, a well-known TRPM8 antagonist. Representative recordings of fluorescence obtained in microfluorometry experiments for selected compounds are in Supplementary Fig. S3.
as §1
The degree of inhibition of TRPM8 channel gating was calculated by comparison to calcium increase signal elicited by test substances and menthol at 100 µM. Decrease of menthol signal was expressed as percentage of inhibition (%). All data are expressed as mean ± standard deviation (SD). Each condition was assessed by triplicate (n = 3) in 3 independent experiments (N = 3). Z-factor was calculated in each assay using the following equation: […]. In all the experiments Z-factor was ≥ 0.5. To calculate IC50, normalized responses (%) versus log [µM] were adjusted to a non-linear fit with variable slope, a four-parameter dose–response curve following curve Y = 100/(1 + 10^((Log IC50-X)*HillSlope)) where […].

[3] = test system: A549 (lung carcinoma, NSCLC); test: SRB cytotoxicity assay, A549
Procedure: (§2) Human tumor cell lines used in this study were purchased from the ATCC. A-549 (CCL-185), lung carcinoma; HT-29 (HTB-38), colorectal adenocarcinoma; MDA-MB-231 (HTB-26), breast adenocarcinoma; PSN1, pancreas adenocarcinoma.
(§3) All cell lines were maintained in DMEM (Dulbecco’s Modified Eagle's Medium) culture medium supplemented with 10% FBS (Fetal Bovine Serum), 100 Units/mL penicillin/streptomycin at 37 °C, 5% CO2 and 95% humidity.
(§4) Triplicate cultures were incubated for 72 h in the presence or absence of test compounds in dose–response curves (10 concentrations, typically ranging from 10 to 0.0026 µg/mL). A colorimetric assay using sulforhodamine B (SRB) was adapted for quantitative measurement of cell growth and cytotoxicity. A more detailed information on this assay is provides in the supplementary information. GI50 is the compound concentration that produces 50% inhibition on cell growth as compared to control cells.
(§5) In vitro bioassays for the detection of antitumor activity
(§6) The aim of this assay is to evaluate the in vitro cytostatic (ability to delay or arrest tumor cell growth) or cytotoxic (ability to kill tumor cells) activity of the samples […]
(§7) Name Nº ATCC Species Tissue Characteristics
(§8) A549 CCL-185 human lung lung carcinoma (NSCLC)
(§9) HT29 HTB-38 human colon colorectal adenocarcinoma
(§10) MDA-MB-231 HTB-26 human breast breast adenocarcinoma
(§11) PSN1 CRM-CRL-3211 human pancreas pancreas adenocarcinoma […]
(§12) A colorimetric assay, using Sulforhodamine B (SRB) reaction has been adapted to provide a quantitative measurement of cell growth and viability (following the technique described by Skehan et al. J. Natl. Cancer Inst. 1990, 82, 1107-1112 […]
(§13) This form of assay employs 96-well cell culture microplates following the standards of the American National Standards Institute and the Society for Laboratory […]
(§14) used in this study were obtained from the American Type Culture Collection (ATCC) and derive from different types of human cancer.
(§15) A549, HT29, MDA-MB-231 and PSN1 cells were maintained in Dulbecco’s
(§16) Modified Eagle Medium (DMEM) supplemented with 10% Fetal Bovine Serum (FBS), 2mM L-glutamine, 100 U/mL penicillin, and 100 U/mL streptomycin at 37 °C, 5% CO2 and 98% humidity. For the experiments, cells were harvested from subconfluent cultures using trypsinization and resuspended in fresh medium before counting and […]
(§17) A549, HT29, MDA-MB-231 and PSN1 cells were seeded in 96 well microtiter plates, at 5000 cells per well in aliquots of 150 µL, and allowed to attach to the plate surface for 18 hours (overnight) in drug free medium. After that, one control (untreated) plate of each cell line was fixed (as described below) and used for time zero reference value. Culture plates were then treated with test compounds (50 µL aliquots of 4X stock […]
(§18) solutions in complete culture medium plus 4% DMSO) using ten 2/5 serial dilutions (concentrations ranging from 10 to 0.003 µg/mL) and triplicate cultures (1% final concentration in DMSO). After 72 hours treatment, the antitumor effect was measured by using the SRB methodology: Briefly, cells were washed twice with PBS, fixed for 15 min in 1% glutaraldehyde solution at room temperature, rinsed twice in PBS, and stained in 0.4% SRB solution for 30 min at room temperature. Cells were then rinsed several times with 1% acetic acid solution and air-dried at room temperature. SRB was then extracted in 10 mM trizma base solution and the absorbance measured in an automated spectrophotometric plate reader at 490 nm.
(§19) Effects on cell growth and survival were estimated by applying the NCI algorithm (Boyd MR and Paull KD. Drug Dev. Res. 1995, 34, 91-109, DOI:10.1002/ddr.430340203). The values obtained in triplicate cultures were fitted by nonlinear regression to a four-parameters logistic curve by nonlinear regression analysis. . Using the absorbance measurements [time zero, (Tz), control growth, (C), and test growth in the presence of drug at the ten concentration levels (Ti)], the […]

[4] = test system: PSN1 (pancreas adenocarcinoma); test: SRB cytotoxicity assay, PSN1
Procedure: as §2, §3, §4, §5, §6, §7, §8, §9, §10, §11, §12, §13, §14, §15, §16, §17, §18, §19

[5] = test system: MDA-MB-231 (breast adenocarcinoma); test: SRB cytotoxicity assay, MDA-MB-231
Procedure: as §2, §3, §4, §5, §6, §7, §8, §9, §10, §11, §12, §13, §14, §15, §16, §17, §18, §19

[6] = test system: HT29 (colorectal adenocarcinoma); test: SRB cytotoxicity assay, HT29
Procedure: as §2, §3, §4, §5, §6, §7, §8, §9, §10, §11, §12, §13, §14, §15, §16, §17, §18, §19

[7] = 72 h, SRB, total growth inhibition, unit inferred

T1 sequence (Q8NER1 whole entry): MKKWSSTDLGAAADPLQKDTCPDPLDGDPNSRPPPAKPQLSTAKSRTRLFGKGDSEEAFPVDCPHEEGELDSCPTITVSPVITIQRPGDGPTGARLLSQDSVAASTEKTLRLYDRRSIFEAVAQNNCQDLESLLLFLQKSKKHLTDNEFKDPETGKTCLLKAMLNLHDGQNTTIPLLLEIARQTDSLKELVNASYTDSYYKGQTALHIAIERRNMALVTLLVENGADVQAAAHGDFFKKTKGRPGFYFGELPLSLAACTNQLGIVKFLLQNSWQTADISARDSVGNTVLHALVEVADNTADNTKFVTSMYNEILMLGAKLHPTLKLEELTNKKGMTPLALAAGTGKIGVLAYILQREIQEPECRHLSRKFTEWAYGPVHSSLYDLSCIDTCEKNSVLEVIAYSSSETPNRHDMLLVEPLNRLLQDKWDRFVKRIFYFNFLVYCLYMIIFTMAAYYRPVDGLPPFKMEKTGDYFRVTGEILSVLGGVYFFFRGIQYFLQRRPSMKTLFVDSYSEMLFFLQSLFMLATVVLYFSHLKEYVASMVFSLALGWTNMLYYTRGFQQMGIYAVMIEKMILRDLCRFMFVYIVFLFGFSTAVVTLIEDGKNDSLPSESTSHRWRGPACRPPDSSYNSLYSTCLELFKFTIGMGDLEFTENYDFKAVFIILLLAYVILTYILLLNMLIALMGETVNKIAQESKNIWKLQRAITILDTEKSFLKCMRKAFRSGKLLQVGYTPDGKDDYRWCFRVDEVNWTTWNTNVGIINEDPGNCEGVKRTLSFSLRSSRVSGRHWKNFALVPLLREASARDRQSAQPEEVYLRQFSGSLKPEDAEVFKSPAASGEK
T2 sequence (Q8R455 whole entry): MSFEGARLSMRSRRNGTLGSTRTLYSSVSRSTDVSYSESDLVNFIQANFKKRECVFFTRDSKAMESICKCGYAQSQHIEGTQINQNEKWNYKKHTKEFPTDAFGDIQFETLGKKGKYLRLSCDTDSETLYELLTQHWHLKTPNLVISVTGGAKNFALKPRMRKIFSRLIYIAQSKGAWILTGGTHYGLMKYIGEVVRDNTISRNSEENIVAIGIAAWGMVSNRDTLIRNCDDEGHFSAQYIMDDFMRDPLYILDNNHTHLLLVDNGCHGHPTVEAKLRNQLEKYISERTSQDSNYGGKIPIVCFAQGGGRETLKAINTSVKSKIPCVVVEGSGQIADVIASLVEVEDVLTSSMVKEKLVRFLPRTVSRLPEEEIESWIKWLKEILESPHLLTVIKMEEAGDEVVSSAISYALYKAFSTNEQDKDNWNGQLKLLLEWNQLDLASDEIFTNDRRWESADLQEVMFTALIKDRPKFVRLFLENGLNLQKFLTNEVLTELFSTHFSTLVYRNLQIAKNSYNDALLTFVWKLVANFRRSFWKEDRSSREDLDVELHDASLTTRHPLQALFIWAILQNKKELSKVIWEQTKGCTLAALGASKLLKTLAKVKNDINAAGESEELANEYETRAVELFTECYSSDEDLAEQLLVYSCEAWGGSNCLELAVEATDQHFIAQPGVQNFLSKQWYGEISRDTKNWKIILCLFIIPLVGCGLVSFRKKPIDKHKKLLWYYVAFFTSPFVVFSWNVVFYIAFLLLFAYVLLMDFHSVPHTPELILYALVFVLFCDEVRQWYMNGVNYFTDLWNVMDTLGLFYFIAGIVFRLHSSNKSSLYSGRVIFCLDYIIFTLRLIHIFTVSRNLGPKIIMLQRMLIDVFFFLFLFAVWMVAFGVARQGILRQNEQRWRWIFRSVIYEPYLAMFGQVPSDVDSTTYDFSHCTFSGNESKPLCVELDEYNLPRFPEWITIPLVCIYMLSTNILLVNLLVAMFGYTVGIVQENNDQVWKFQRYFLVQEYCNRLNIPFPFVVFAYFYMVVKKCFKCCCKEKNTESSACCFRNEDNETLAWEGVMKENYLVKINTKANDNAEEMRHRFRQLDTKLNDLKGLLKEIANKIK

| SMILES | TRPV1 Blockade (%) 5 µM [1] [%] | TRPV1 Blockade (%) 50 µM [1] [%] | % Blockade 5 µM [2] [%] | % Blockade 50 µM [2] [%] | IC50 [2] [µM] | also measured |
| --- | --- | --- | --- | --- | --- | --- |
| O=C(N[C@@H](Cc1ccccc1)CN1C(=O)CC1(Cc1ccccc1)C(=O)OCc1ccccc1)OCc1ccccc1 (stereo partly drawn) [Compound 12ab] | 9.2±1.4 | 15.3±2.8 | 92.3 ± 6.2 | 100.0 ± 3.1 | 1.5 ± 1.2 | – |
| O=C(N[C@H](Cc1ccccc1)CN1C(=O)CC1(Cc1ccccc1)C(=O)OCc1ccccc1)OCc1ccccc1 (stereo partly drawn) [Compound 14ab] | 4.1±2.4 | 8.7±3.5 | 91.0 ± 4.3 | 103 ± 2.7 | 1.2 ± 1 | – |
| COC(=O)C(Cc1ccccc1)N1C[C@H](Cc2ccccc2)N(C(=O)OCc2ccccc2)CC1=O (stereo partly drawn) [Compound 20ab] | 12.2±3.1 | 19.3±1.2 | 22.3 ± 5.5 | 61.0 ± 5.6 | 18.8 ± 1.7 | – |
| O=C(OCc1ccccc1)C(Cc1ccccc1)N1C[C@H](Cc2ccccc2)N(C(=O)OCc2ccccc2)CC1=O (stereo partly drawn) [Compound 21ab] | 6.2±3.1 | 11.8±1.8 | 70.0 ± 6.8 | 92.5 ± 4.3 | 2 ± 1.5 | – |
| CC1C(=O)N(C[C@H](Cc2ccccc2)NC(=O)OCc2ccccc2)[C@@]1(Cc1ccccc1)C(=O)OCc1ccccc1 (stereo partly drawn) [Compound 25ab] | 3.4±1.7 | 4.3±1.1 | 68.2 ± 5.6 | 89.2 ± 9.2 | 3.9 ± 1.9 | – |
| C[C@H]1C(=O)N(C(Cc2ccccc2)C(=O)OCc2ccccc2)C[C@H](Cc2ccccc2)N1C(=O)OCc1ccccc1 (stereo partly drawn) [Compound 26ab] | 6.2±1.8 | 7.3±3.2 | 93.5 ± 3.4 | 102.4 ± 1.5 | 2.4 | – |
| CC1C(=O)N(C[C@@H](Cc2ccccc2)NC(=O)OCc2ccccc2)[C@@]1(Cc1ccccc1)C(=O)OCc1ccccc1 (stereo partly drawn) [Compound 31ab] | 5.7±2.3 | 12.1±1.3 | 91.0 ± 4.3 | 105.0 ± 5.5 | 1.6 ± 1.3 | – |
| C[C@H]1C(=O)N(C(Cc2ccccc2)C(=O)OCc2ccccc2)C[C@@H](Cc2ccccc2)N1C(=O)OCc1ccccc1 (stereo partly drawn) [Compound 32ab] | 4.1±2.3 | 6.3±2.3 | 47.4 ± 6.8 | 115.1 ± 4.5 | 17.4 ± 1.6 | – |
| CC(C(=O)OCc1ccccc1)N1CC(Cc2ccccc2)N(C(=O)OCc2ccccc2)CC1=O (stereo not drawn) [Compound 38ab] | – | – | 66.0 ± 3.3 | 105.5 ± 3.2 | 2.5 ± 1.3 | – |
| C[C@@H]1C(=O)N(C[C@@H](Cc2ccccc2)NC(=O)OCc2ccccc2)[C@]1(C)C(=O)OCc1ccccc1 [Compound 39a] | 2.6±0.9 | 3.2±2.777 | 46.6 ± 11.1 | 100.4 ± 3.5 | 6.2 ± 1.1 | – |
| CC(C(=O)OCc1ccccc1)N1C[C@@H](Cc2ccccc2)N(C(=O)OCc2ccccc2)[C@H](C)C1=O (stereo partly drawn) [Compound 40ab] | – | – | 79.1 ± 3.3 | 107.9 ± 2.5 | 0.8 ± 1.2 | – |
| COc1cccc2c1C(=O)c1c(O)c3c(c(O)c1C2=O)C[C@@](O)(C(=O)CO)C[C@@H]3O[C@H]1C[C@H](N)[C@H](O)[C@H](C)O1 [Doxorubicin.HCl, reference compound] | – | – | – | – | – | TGI A549 [3, 7]: 0.64 µM; CC50 ([3]; Homo sapiens, A549, 72 h, read-out: LC50 A549): 2.93 µM; GI50 ([3]; Homo sapiens, A549, 72 h, SRB): 0.24 µM; TGI PSN1 [4, 7]: 0.48 µM; CC50 ([4]; Homo sapiens, PSN1, 72 h, read-out: LC50 PSN1): 1.62 µM; GI50 ([4]; Homo sapiens, PSN1, 72 h, SRB): 0.17 µM; TGI MDA-MB-231 [5, 7]: 0.41 µM; CC50 ([5]; Homo sapiens, MDA-MB-231, 72 h, read-out: LC50 MDA-MB-231): 0.98 µM; GI50 ([5]; Homo sapiens, MDA-MB-231, 72 h, SRB): 0.17 µM; TGI HT29 [6, 7]: 0.64 µM; CC50 ([6]; Homo sapiens, HT-29, 72 h, read-out: LC50 HT29): > 17.2 µM; GI50 ([6]; Homo sapiens, HT-29, 72 h, SRB): 0.19 µM |
